Laboratory results reported in paper PMC7812606 (ACS Medicinal Chemistry Letters, 2020).
Entries after “also recorded” stand apart in the source; their conditions may differ.

Key:
[1] = molecular target: panel of ∼374 wild-type kinases; experiment: Kinase panel profiling, overall; assay type: biochemical; conditions: 17 and 25 at 5 μM, 27 at 10 μM
JNK2 = JNK2 (Homo sapiens, UniProt P45984); assay type: biochemical; conditions: isoform selectivity, fold
[2] = system: APP^T668 phosphorylation in primary neurons; experiment: Cell-based inhibition of APP T668 phosphorylation; conditions: concentration as low as 10 nM
In vivo brain exposure = conditions: mice
JNK3 = JNK3 (Homo sapiens, UniProt P53779); assay type: biochemical; conditions: JNK3 or JNK1
JNK3, sequence (P53779 whole entry): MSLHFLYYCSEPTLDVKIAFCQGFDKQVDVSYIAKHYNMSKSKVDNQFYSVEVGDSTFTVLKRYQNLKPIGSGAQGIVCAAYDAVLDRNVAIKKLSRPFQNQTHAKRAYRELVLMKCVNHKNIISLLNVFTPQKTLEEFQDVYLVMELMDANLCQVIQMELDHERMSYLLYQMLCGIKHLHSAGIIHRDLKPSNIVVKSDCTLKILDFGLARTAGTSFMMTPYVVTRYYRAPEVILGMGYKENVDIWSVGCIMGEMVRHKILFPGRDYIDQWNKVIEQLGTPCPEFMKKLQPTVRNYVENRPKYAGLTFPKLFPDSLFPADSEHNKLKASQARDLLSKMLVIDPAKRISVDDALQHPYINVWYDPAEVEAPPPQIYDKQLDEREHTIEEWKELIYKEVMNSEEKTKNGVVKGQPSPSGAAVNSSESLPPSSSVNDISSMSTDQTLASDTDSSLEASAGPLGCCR

JNK2, sequence (P45984 whole entry, canonical isoform): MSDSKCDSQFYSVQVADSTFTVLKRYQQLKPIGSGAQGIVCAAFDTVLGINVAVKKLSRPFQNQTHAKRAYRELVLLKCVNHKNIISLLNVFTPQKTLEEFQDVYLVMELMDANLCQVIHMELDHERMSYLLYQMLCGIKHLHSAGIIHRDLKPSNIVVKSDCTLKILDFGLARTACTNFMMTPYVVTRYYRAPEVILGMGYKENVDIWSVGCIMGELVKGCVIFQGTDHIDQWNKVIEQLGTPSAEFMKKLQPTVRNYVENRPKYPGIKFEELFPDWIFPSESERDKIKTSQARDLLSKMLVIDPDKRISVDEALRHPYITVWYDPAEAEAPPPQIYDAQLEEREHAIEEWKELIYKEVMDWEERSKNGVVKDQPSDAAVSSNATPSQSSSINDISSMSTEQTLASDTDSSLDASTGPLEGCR

SMILES: Cc1sc(C(=O)NC2COC2)cc1-n1cc(NC(=O)Nc2c(F)cccc2Cl)cn1 [Compound 27]
- kinases with significant inhibition (>80% inhibition) in panel [1]: against only JNK3

SMILES: O=C(Nc1cnn(-c2csc(C(=O)N[C@@H]3CCOC3)c2)c1)Nc1ccccc1Cl [Compound 16]
- R: ratio of IC50 values for JNK2 over JNK3 (JNK2): > 250

SMILES: O=C(Nc1cnn(-c2csc(C(=O)NC3COC3)c2)c1)Nc1c(F)cccc1Cl [Compound 25]
- kinases with significant inhibition (>80% inhibition) in panel [1]: against only JNK3

SMILES: Cc1sc(C(=O)N[C@@H]2CCOC2)cc1-n1cc(NC(=O)Nc2c(F)cccc2Cl)cn1 [Compound 28]
- inhibition of phosphorylation of residue T668 of APP [2]: significantly inhibited

SMILES: O=C(Nc1cnn(-c2csc(C(=O)NC3COC3)c2)c1)Nc1ccc(F)cc1Cl [Compound 26]
- inhibition of phosphorylation of residue T668 of APP [2]: significantly inhibited

SMILES: O=C(Nc1cnn(-c2csc(C(=O)NC3COC3)c2)c1)Nc1ccccc1Cl [Compound 17]
- kinases with significant inhibition (>80% inhibition) in panel [1]: significant inhibition to only JNK3; also recorded: against only JNK3
- inhibition of phosphorylation of residue T668 of APP [2]: significantly inhibited
- brain penetration (In vivo brain exposure; po dosing): brain penetrant
- oral bioavailability (In vivo brain exposure; po dosing): has oral bioavailability
- brain concentration (In vivo brain exposure; po, 10 mg/kg, 1 h after dosing): 1080 nM
- plasma concentration (In vivo brain exposure; po, 10 mg/kg, 1 h after dosing): 960 nM

SMILES: O=C(Nc1cnn(-c2nc(C(=O)NC3CNC3)cs2)c1)Nc1ccccc1Cl [Compound 3]
- inhibition of JNK3 and JNK1 in words (JNK3): no inhibitions
